These results are taken from patent US7018803B2, “Inhibitors of collagen assembly” (Drexel University College of Medicine, priority 1997, dated 2006).

No end group written: not given here.

For assay [1], the target named is T1, type I collagen (pCcollagen I) (Homo sapiens, UniProt P02452).
T1 construct: made in house; host or cells: cultured human skin fibroblasts (endogenous procollagen purified from the medium, 14C-labelled)
Type of assay: biochemical. The note with it: for inhibition of fibril assembly (in words): peptide 2.5 mM. The protocol: Assembly of collagen I into fibrils de novo was assayed under conditions employed previously (Miyahara et al., 1982, J. Biol. Chem. 257:8442–8448; Kadler et al., 1987, J. Biol. Chem. 262:15696–15701; Kadler et al., 1990, Ann. N.Y. Acad. Sci. 580:214–224; Kadler et al., 1990, Biochem. J. 268:339–343; Fertala et al., 1996, J. Biol. Chem. 271:14864–14869). In brief, ^14C-labeled type I procollagen was recovered from the medium of cultured human skin fibroblasts and was purified with two chromatographic steps to homogeneity. The type I procollagen was processed to pccollagen I by cleavage with procollagen N-proteinase purified from organ cultures of chick embryo tendons. “pCcollagen” is a partially processed procollagen which is missing the […]. The pCcollagen was then isolated on a gel filtration column. Fibril assembly was assayed in a […] reaction volume in a […] plastic centrifuge tube sealed with a plunger and containing a physiological bicarbonate buffer, […] pCcollagen I, and 15 units/ml procollagen C-proteinase purified from chick embryo tendons. Potentially inhibitory peptides were added to the reaction mixture to final concentrations of 0.5 to 2.5 mM in […] of buffer. After incubation for 0.5 to 24 hours at 37° C., the sample was centrifuged 13,000×g for 10 min. The pellet and supemate fractions were separated by electrophoresis on a 7.5% polyacrylamide gel in SDS and the gel assayed either with a phosphor storage imager (Molecular Dynamics) or by staining with colloidal Coomassie blue (Brilliant Blue, Sigma) and analysis with a densitometer (Personal Densitometer, Molecular Dynamics). Alternatively, the reaction was carried out in a sealed chamber on a microscopic slide and followed by Dark field light microscopy (Zeiss model 009).
F6 contained sequences that spanned the vertebrate collagenase cleavage site of -Gly-le- in the D4 period of the α1(I) chain. […] The peptides were added in concentrations of 2.5 mM to the system for assaying fibril formation by the cleavage of pCcollagen with C-proteinase (Miyahara et al., 1982, J. Biol. Chem. 257:8442–8448; Kadler et al., 1987, J. Biol. Chem. 262:15696–15701; Kadler et al., 1990, Ann. N.Y. Acad. Sci. 580:214–224; Kadler et al., 1990, Biochem. J. 268:339–343; Fertala et al., 1996, J. Biol. Chem. 271:14864–14869).

Assay [2] has as its target T2, type I collagen (monomeric collagen, Vitrogen 100) (Bos taurus, UniProt P02453).
T2 construct: purchased Collagen Biomaterials Vitrogen 100
The experiment in a line: Competition binding assay on microtiter plates with biotinylated telopeptides. The protocol:
A collagen assembly inhibitory peptide is “biologically active” if it is capable of inhibiting collagen self-assembly in any one of the assays described herein. For example, in a high throughput assay described herein in the description of the data shown in FIGS. 8 and 9, a series of wells in a microtiter plate are coated with monomeric collagen. An amount of HCl is added to each well and the plates are dried. The plates are rinsed in buffer and bovine serum albumin (BSA) is added to block non-specific binding sites on the collagen. Samples containing labeled peptide (for example, biotinylated peptide) which is known to inhibit collagen self-assembly and unlabeled test peptide at various concentrations are premixed and are added to the wells. […] The wells are incubated for a period of time, the plates are washed and streptavidin conjugated to alkaline phosphatase is added. Incubation is continued for a further period of time following which a developing reagent is added to the wells. The amount of binding of the labeled peptide to the collagen is assessed and the degree of inhibition of binding by the test peptide is also assessed. Any test peptide which inhibits binding of the labeled peptide is isolated and is tested further for the ability to inhibit collagen self-assembly in the assays described herein in the description of FIGS. 1, 2 and 3.
To define the telopeptide binding site with a competitive assay, 96-well titiation plates (Immulon 3, Dynatech Laboratories, Inc.) were used. Seventy microliters of the solution containing […] of monomeric collagen (Vitrogen 100, Collagen Biomaterials) in 0.01 N HCl was added to each well, and the plates were dried at room temperature. The plates were rinsed with sterile phosphate buffered saline and non-specific binding sites were blocked with 1% bovine serum albumin. […] As a negative control, peptide α2-218/233 was used at concentrations from […]. […] After 2 hours of incubation, the reaction was measured with microtiter plate reader (Dynatech Laboratories) using a 405 nanometer filter. […]

The target of assay [3] is type I collagen (Homo sapiens, UniProt P02452). Put plainly: Phage display peptide library panning, ligand type I collagen in all three cycles. As to conditions: ligand Type I Collagen x3. Type of assay: binding. The source says: (§1) A comrnmercially-available phage-display peptide library was used to identify peptides that bind to the telopeptide binding region of type I collagen (i.e. amino acid residues 776–797). The library comprised phage particles having about 1.9×10^9 distinct linear peptide sequences.
type I collagen, sequence (P02452 162-1218 limits assumed): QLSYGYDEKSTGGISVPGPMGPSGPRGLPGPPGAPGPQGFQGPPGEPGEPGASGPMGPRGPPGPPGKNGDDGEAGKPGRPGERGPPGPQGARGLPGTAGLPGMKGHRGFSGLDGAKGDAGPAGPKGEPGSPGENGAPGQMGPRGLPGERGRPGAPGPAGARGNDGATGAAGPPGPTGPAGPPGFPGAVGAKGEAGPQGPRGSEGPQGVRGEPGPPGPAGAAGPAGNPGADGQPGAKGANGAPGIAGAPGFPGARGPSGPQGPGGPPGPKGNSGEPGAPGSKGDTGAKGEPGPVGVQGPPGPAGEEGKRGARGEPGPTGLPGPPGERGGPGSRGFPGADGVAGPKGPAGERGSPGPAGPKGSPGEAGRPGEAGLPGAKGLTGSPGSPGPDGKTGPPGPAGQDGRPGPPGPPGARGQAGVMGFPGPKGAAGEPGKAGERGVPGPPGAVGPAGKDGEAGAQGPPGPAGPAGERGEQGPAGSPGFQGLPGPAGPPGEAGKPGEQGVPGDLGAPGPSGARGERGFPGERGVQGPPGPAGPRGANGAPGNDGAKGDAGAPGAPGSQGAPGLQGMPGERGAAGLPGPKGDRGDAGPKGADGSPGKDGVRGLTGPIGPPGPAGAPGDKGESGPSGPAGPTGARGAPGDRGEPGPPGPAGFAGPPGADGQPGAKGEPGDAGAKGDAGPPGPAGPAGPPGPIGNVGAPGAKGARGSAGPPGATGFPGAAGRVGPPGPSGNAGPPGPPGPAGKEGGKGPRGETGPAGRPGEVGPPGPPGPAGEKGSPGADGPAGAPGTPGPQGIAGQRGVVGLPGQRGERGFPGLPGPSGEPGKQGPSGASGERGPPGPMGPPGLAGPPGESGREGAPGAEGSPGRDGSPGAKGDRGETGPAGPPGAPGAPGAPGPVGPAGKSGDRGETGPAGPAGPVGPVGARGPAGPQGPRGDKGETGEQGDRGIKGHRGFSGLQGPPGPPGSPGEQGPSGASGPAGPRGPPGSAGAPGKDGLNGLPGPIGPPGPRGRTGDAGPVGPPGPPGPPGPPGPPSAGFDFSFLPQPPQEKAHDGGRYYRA
type I collagen, sequence (P08123 80-1119 partner limits assumed): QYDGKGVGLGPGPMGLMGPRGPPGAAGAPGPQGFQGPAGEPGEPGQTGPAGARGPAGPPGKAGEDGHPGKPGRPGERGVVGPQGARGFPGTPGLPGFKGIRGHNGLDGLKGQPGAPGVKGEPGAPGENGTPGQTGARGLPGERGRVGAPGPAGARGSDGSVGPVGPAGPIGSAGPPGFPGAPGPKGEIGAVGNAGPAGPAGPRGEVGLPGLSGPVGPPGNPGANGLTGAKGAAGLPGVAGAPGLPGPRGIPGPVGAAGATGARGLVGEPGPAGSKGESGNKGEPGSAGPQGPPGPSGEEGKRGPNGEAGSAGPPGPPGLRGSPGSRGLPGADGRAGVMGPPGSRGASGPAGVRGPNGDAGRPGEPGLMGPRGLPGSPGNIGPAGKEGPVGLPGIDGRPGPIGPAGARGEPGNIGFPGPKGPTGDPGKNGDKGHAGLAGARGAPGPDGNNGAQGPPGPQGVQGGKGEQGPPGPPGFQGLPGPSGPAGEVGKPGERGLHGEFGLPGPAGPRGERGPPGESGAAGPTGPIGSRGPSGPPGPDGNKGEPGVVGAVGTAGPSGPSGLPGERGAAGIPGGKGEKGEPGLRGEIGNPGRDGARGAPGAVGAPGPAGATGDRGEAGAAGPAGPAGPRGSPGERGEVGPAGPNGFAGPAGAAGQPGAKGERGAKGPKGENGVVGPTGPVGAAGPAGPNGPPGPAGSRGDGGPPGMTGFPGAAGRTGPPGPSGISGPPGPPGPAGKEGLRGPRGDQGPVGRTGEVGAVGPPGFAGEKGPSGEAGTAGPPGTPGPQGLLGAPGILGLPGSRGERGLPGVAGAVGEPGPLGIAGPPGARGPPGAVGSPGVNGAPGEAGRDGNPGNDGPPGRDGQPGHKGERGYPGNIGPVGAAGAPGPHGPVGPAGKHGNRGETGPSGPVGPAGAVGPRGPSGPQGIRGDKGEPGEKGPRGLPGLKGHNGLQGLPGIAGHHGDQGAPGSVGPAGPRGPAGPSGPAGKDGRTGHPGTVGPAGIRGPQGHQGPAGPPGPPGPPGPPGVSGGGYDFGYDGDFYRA
(§2) For the experiments described in this Example, either type I collagen or a 22-mer synthetic peptide having the amino acid sequence of residues 776–797 of type I collagen was bound to the walls of individual wells of microtiter plates. Aliquots of the phage-display peptide library were added to and incubated with the wells. Thereafter, the microtiter wells were rinsed to remove non-specifically-binding library particles, and specifically-binding library particles were eluted using a solution comprising at least one of: • the 22-mer synthetic peptide having the amino acid sequence of residues 776–797 of type I collagen; • type I collagen; and • glycine HCl buffer having a pH of 2.2.
(§3) Eluted specifically-binding library particles were added to and incubated with microtiter plates having either type I collagen or the 22-mer synthetic peptide bound to the wells thereof, and washing and elution steps were repeated. A total of three cycles of incubation-washing-elution were performed. Following these three cycles, specifically-binding phage particles were isolated, and the amino acid sequence of the peptide encoded by each of these particles was determined by amplifying and sequencing the nucleic acid contained within the particle.
Amino acid sequences of the random peptide region carried by discrete specifically-binding phage particles are indicated in Table II, together with the identity of the ligand bound to the microtiter wells in each of the three incubation-washing-elution cycles. […]

In assay [4] the target is T3, α1-776/796 (telopeptide binding region of type I collagen) (Homo sapiens, UniProt P02452).
T3 construct: host or cells: synthetic peptide
Put plainly: Phage display peptide library panning, ligand α1-776/796 peptide in all three cycles. As to conditions: ligand α1-776/796 x3.
Description: as §1, §2, §3
Amino acid sequences of the random peptide region carried by discrete specifically-binding phage particles are indicated in Table II, together with the identity of the ligand bound to the microtiter wells in each of the three incubation-washing-elution cycles. These isolated peptides, or peptides having no more than about fifty, preferably no more than twenty, even more preferably no more than ten, and still more preferably no more than five amino acid residues at one or both ends thereof, may be used to inhibit collagen self-assembly by contacting a collagen molecule such as a collagen triple helix, with one of these peptides.

T1 sequence (P02452 162-1218 limits assumed): as the sequence (P02452 162-1218 limits assumed) above
T1 sequence (P08123 80-1119 partner limits assumed): as the sequence (P08123 80-1119 partner limits assumed) above
T2 sequence (P02453 178-1191 limits assumed): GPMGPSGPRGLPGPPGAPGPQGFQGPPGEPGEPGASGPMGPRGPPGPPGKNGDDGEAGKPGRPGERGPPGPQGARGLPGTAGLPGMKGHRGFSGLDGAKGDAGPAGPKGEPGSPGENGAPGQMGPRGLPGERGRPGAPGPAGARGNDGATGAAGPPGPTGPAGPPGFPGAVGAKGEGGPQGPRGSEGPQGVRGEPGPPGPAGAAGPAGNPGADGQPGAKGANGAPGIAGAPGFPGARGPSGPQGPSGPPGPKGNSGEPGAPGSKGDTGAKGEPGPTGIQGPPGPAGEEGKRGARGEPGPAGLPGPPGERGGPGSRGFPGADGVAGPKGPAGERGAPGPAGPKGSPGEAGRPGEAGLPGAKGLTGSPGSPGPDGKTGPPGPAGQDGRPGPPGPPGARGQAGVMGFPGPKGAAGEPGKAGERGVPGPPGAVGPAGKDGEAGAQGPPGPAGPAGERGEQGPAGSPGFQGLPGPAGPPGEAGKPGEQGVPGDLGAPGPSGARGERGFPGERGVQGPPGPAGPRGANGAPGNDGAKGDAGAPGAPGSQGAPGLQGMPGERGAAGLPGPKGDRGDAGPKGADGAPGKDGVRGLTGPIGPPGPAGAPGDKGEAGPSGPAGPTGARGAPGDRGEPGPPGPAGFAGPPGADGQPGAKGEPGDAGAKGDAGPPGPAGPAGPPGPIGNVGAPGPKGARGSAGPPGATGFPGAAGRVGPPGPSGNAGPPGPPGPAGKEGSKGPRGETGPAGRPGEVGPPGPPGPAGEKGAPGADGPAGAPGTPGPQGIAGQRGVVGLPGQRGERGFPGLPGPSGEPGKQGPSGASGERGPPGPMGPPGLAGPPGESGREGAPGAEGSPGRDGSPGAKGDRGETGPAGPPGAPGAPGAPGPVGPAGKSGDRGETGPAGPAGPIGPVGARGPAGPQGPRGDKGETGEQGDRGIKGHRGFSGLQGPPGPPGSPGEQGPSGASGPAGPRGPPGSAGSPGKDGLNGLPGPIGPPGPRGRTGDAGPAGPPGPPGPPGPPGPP

On to ADGPAGAPGTPGPQGIAGQRGVVGL [Peptide F6], for which, in assay [1], the “inhibition of fibril assembly (in words)” value was “little if any inhibition”.
With AKGAAGLPGVAGAPGL [Peptide F1], the “competition for the binding site with biotinylated telopeptides” value in assay [2] (negative control, 10 to 500 mM) is recorded as “no competition”. Besides, the “inhibition of fibril assembly (in words)” value in assay [1] is on record as “little if any inhibition”.
As for DFRYRA [Peptide F10, DFRYRA], the “inhibition of fibril assembly (in words)” value in assay [1] is listed as “Smaller effects”.
Regarding GGGSDSGSD [F7/B], the “inhibition of fibril assembly (in words)” value in assay [1] is given as “abolished inhibitory effects”.
In the case of GGGYDFGYD [Peptide F7], in assay [1], the “inhibition of fibril assembly (in words)” value is “equally effective as the intact F3”.
With GGGYDFGYDGDFYRA [Peptide F3], in assay [1] (2.5 mM added during the lag phase), the “effect on fibril formation when added during the lag period” value was “inhibited fibril formation”. In assay [1] (2.5 mM added during the mid-propagation phase), the “effect on fibril assembly when added during the mid-propagation phase” value was “little of any effect”. In assay [1] (2.5 mM, sealed chamber, 37° C., 24 hours), the “appearance of fibrils by Dark field light microscopy” value is given as “No fibrils appeared”. Moreover, the “effect on fibril assembly if added at or before the first one-third of the lag phase” value in assay [1] (added at or before the first one-third of the lag phase) is reported as “completely prevented fibril assembly”. Further, the “effect on fibril assembly if added after the first one-third of the lag phase” value in assay [1] (added thereafter) was “much less effect”. Besides, in assay [1], the “inhibition of fibril assembly (in words)” value is “almost completely inhibited”.
In the case of GGGYSFGYS [F7/A], the “inhibition of fibril assembly (in words)” value in assay [1] is listed as “no effect on inhibition of fibril assembly”.
As to GYDFGYDGDF [Peptide F9], the “inhibition of fibril assembly (in words)” value in assay [1] was “Smaller effects”.
For the substance GYDGDFYRA [Peptide F8], in assay [1], the “inhibition of fibril assembly (in words)” value is “equally effective as the intact F3”.
In the case of “LIQPPRYSTTVS (Phage Display Library Peptide)”, the “# of Isolated Particles Having this Sequence” value in assay [3] (eluent pH 2.2 buffer) is given as 10.
“LLPHSVSIPPDA (Phage Display Library Peptide)”: in assay [3] (eluent Type I Collagen), the “# of Isolated Particles Having this Sequence” value was determined as 10.
Consider “QLLEPVNLSTGP (Phage Display Library Peptide)”, for which, in assay [4] (eluent α1-776/796), the “# of Isolated Particles Having this Sequence” value is listed as 7.
As for QLSYGYDEKSTGGISVP [Peptide F4], in assay [1], the “inhibition of fibril assembly (in words)” value was “almost completely inhibited”.
For the substance “SHALPLTWSTAA (Phage Display Library Peptide)”, the results for the “# of Isolated Particles Having this Sequence” value in assay [3] (eluent α1-776/796) and in assay [4] (eluent α1-776/796) were 10 and 1, respectively.
Consider “TFWHLTPPRGYY (Phage Display Library Peptide)”, for which the “# of Isolated Particles Having this Sequence” value in assay [4] (eluent pH 2.2 buffer) is listed as 3→.
Take “VHWWIPVSTGTA (Phage Display Library Peptide)”: in assay [4] (eluent pH 2.2 buffer), the “# of Isolated Particles Having this Sequence” value is 6→.
Take “YGAGFDDGDYGYRYG [SC/F3, peptide having the same amino acid residues as F3, but in a scrambled order, reference compound]”: in assay [1], the “inhibition of fibril assembly (in words)” value is given as “no effect”.
As for “YGSPHPSRPPGA (Phage Display Library Peptide)”, the “# of Isolated Particles Having this Sequence” value in assay [4] (eluent Type I Collagen) is 10; in assay [4] (eluent α1-776/796) it was 1→.
For the substance “α1-776/797: peptide with the sequence of the amino acids in positions 776 to 797 of the α1(I) chain (IAGQRGVVGLPGQRGERGFPGL)”, in assay [2] (50 mM biotinylated F2, 10 to 500 mM competitor, 25° C., 12 h), the “competition with binding of biotinylated C-telopeptide of the α1(I) chain (peptide F2) to type I collagen” value is listed as “effectively competed”. In assay [2] (50 mM biotinylated F3, 10 to 500 mM competitor, 25° C., 12 h), the “competition with binding of biotinylated C-telopeptide of the α2(I) chain (peptide F3) to type I collagen” value was “effectively competed”.
